For this experiment, the target named is Tsr (E. coli serine chemoreceptor) (Escherichia coli, UniProt P02942). The experiment is described as follows: in vivo FRET kinase assay. The experiment is classed as cell-based.

pIC50: −log10 of the molar value.

These results are taken from paper PMC9282233 (Proceedings of the National Academy of Sciences of the …, 2022).

One may read the pIC50 as −log10 of the IC50, conventionally taken in molar units. A high value points to a small IC50.

Tsr (E. coli serine chemoreceptor), sequence (P02942 whole entry): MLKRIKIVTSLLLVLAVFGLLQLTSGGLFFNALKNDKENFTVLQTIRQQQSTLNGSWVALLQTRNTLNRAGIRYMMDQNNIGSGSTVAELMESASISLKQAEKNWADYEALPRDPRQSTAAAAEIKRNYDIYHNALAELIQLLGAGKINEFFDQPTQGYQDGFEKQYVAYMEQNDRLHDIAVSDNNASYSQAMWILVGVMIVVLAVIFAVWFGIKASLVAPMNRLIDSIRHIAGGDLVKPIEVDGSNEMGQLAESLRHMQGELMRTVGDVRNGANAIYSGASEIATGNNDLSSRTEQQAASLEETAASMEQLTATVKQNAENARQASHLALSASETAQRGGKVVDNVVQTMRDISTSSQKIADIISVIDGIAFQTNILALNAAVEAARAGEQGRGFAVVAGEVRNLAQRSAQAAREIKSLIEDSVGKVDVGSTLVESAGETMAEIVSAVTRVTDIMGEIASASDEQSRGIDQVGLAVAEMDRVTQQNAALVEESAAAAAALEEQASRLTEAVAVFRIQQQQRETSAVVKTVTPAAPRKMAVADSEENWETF

The molecule `N[C@@H](CO)C(=O)O` [serine] gave a pIC50 of 4.74.
